Experimental data as given in patent publication US20250134855A1, “CO[…] AND METHODS OF USING SAME” (LYKOS THERAPEUTICS, INC., priority 2022, published 2025).

Experiments:
OATP1B1 = OATP1B1 (Homo sapiens, UniProt Q9Y6L6); assay: Transporter substrate assessment, OATP1B1
healthy individuals = assay: Study MPKF: ECG / QTcF; assay type: in vivo, human
Excerpt: Specifically, there was no change in mean QTcF over time above 10 ms at any timepoint.

male and female rats = assay: Fertility study, male and female rats; assay type: in vivo, rat
Method: MDMA (0, 2.5, 5, and 10 mg/kg/day) was orally administered to male and female rats before mating. Males were dosed once daily for 28 days prior to pairing and dosing continued until euthanasia. Females were dosed once daily for 21 days prior to pairing and dosing continued though gestational day seven.

rats = assay: Daily 28-day repeated dose toxicology study, rats; assay type: in vivo, rat; conditions: 0, 10, 50, or 100 mg/kg/day, daily 28 days
Method: Based on negative in vivo and in vitro genotoxicity studies, the carcinogenic risk of MDMA·HCl is low. No tumors were reported after daily 28-day repeated dose toxicology studies of MDMA in rats (0, 10, 50, or 100 mg/kg/day) or dogs (0, 3, 9, or 15 mg/kg/day).

[1] = system: participants with severe PTSD; assay: MAPP1 Phase 3: CAPS-5 total severity score; assay type: in vivo, human; conditions: for CFB in CAPS-5 Total Severity Score, LS mean for treatment difference (95% CI) / CFB in CAPS-5 Total Severity Score, LS mean / CAPS-5 Total Severity Score, Mean / CAPS-5 Total Severity Score, Median / CFB in CAPS-5 Total Severity Score, Mean / CFB in CAPS-5 Total Severity Score, Median / Loss of Diagnosis, % / Non-Responder (<10-point reduction in CAPS-5 Total Severity Score), % / Remission, % / Responder (≥10-point reduction in CAPS-5 Total Severity Score), %: MAPP1, mITT; for CFB in CAPS-5 Total Severity Score, LS mean for treatment difference (95% CI): vs placebo with therapy
Excerpt: FIG. 36 and FIG. 37 show the time course of improvement in Clinician Administered PTSD Scale for DSM-5 (CAPS-5) total severity score versus placebo. Each show a treatment difference between MDMA and placebo after 3 medication sessions with psychological intervention. […] Between the second and third treatment sessions, the difference between the groups appeared to continue to increase in both studies. The primary efficacy measure was change from baseline in the CAPS-5 total severity score at 18 weeks, which was evaluated 2 months after the final dosing session. The CAPS-5 is a 30-item, clinician-rated scale used to assess severity of PTSD symptoms and diagnostic status according to DSM-5 criteria, as described herein. Scores on the CAPS 5 range from 0 to 80, with higher scores indicating more severe PTSD symptoms. In both studies, a secondary efficacy measure was change from baseline in Sheehan Disability Scale (SDS) mean item scores at 18 weeks. The modified SDS is a 3-item, clinician-rated scale measuring the degree of functional impairment in work, family, and social life. Scores on the SDS mean items range from 0 to 10, with higher scores indicating more functional impairment. In these studies, the efficacy assessments were administered by blinded independent raters 18 to 30 days after medication sessions 1 and 2.
A flexible dose of MDMA hydrochloride salt (referred to as MDMA throughout) or placebo, followed by a supplemental half-dose unless contraindicated, was administered during the Treatment Period with manualized psychotherapy in three blinded monthly Experimental Sessions. This ˜12-week Treatment Period was preceded by three Preparatory Sessions. During the Treatment Period, each Experimental Session was followed by three Integrative Sessions of non-drug psychotherapy. Experimental Sessions were followed by an overnight stay. The Primary Outcome measure, the change in Clinician Administered PTSD Scale (CAPS-5), was assessed by a blinded centralized Independent Rater (IR) pool multiple times throughout the study. Three blinded manualized Experimental Sessions of psychotherapy assisted by flexible doses of MDMA·HCl or placebo were administered (see Table 28 below). Initial doses per Experimental Session include 80 mg or 120 mg MDMA compounded with mannitol and magnesium stearate or indistinguishable weight placebos comprised entirely of mannitol and magnesium stearate, followed 1.5 to 2 hours later by a supplemental half-dose (40 mg or 60 mg MDMA·HCl or placebo). Total amounts of MDMA·HCl to be administered per Experimental Session range from 80 mg to 180 mg. All drug is encapsulated with HPMC capsules.
In the first Experimental Session, the initial dose was 80 mg MDMA·HCl or placebo. In the second and third Experimental Sessions, the initial dose may be increased to 120 mg MDMA·HCl or placebo unless contraindicated. The choice of whether to keep the dose the same or change it from the first Experimental Session was made by the therapy team the in consultation with the site physician based on observed response, tolerability to the previously administered dose, and discussion with the participant. In each Experimental Session, 1.5 to 2 hours after the initial dose is given, the participant was administered a supplemental half-dose unless contraindicated. If an AE requiring medical attention occurs between the initial and supplemental dose this was evaluated as a potential contraindication by the site physician. If a participant prefers not to take the supplemental dose, the reason was documented. Participants will not know if they have been assigned MDMA or placebo but can indicate if they want the dose to change or remain the same.
The MDMA assisted therapy (MDMA-AT) approach is detailed in the “Manual for MDMA Assisted Therapy in the Treatment of PTSD,” published by MAPS (MDMA Treatment Manual, available at maps.org/treatment-manual). […]

[2] = fasted group, 12-hour timepoint
[3] = de jure estimand, Baseline CAPS-5 T1 (Visit 3)
[4] = de jure estimand, CAPS-5 T2 (Visit 8)
[5] = de jure estimand, CAPS-5 T3 (Visit 13)
[6] = de jure estimand, CAPS-5 T4 (Visit 19)
[7] = de jure estimand, CFB to T2 (Visit 8)
[8] = de jure estimand, CFB to T3 (Visit 13)
[9] = de jure estimand, CFB to T4 (Visit 19)
[10] = T4 (primary) endpoint (Visit 19)

OATP1B1, sequence (Q9Y6L6 whole entry): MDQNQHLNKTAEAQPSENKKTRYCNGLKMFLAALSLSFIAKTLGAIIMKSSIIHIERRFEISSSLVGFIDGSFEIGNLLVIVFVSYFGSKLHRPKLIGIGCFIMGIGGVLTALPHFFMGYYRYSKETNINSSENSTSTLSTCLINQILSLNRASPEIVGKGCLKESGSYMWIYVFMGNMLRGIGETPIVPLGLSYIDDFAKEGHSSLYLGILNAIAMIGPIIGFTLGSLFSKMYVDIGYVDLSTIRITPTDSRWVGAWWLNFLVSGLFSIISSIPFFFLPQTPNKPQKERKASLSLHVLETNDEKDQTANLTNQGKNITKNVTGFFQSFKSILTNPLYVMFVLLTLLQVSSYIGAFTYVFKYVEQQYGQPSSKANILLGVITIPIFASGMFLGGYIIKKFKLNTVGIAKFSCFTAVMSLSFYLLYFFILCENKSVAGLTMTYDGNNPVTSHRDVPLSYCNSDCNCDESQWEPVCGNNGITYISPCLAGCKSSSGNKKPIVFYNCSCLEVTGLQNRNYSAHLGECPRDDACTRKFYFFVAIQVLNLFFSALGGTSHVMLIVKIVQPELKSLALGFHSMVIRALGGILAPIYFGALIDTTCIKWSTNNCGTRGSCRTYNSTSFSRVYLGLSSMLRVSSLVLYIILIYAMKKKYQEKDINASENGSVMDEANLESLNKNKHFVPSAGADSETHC

SMILES: CNC(C)Cc1ccc2c(c1)OCO2 (stereo not shown) [MDMA, 3,4-methylenedioxymethamphetamine]
- substrate of OATP1B1 (OATP1B1): not a substrate
- change in mean QTcF over time (healthy individuals; any timepoint): ≤ 10 ms
- participants with mean QTcF increase from baseline above 30 ms (healthy individuals; [2]): 6.3%
- participants with mean QTcF increase from baseline above 30 ms, n (healthy individuals; [2]): 1 participant
- impact on ECG parameters (healthy individuals; in vivo): no significant impact
- QTcF intervals (healthy individuals; no participant above, any group): ≤ 450 ms
- mean prostate gland weights (male and female rats; all MDMA-treated males relative to controls): decreased
- fertility and reproductive performance (male and female rats; oral, up to the highest dose evaluated (10 mg/kg/day)): No effect on fertility and reproductive performance
- tumors (rats): No tumors
- onset of treatment efficacy (CAPS-5 versus placebo) ([1]; FIG. 36 and FIG. 37, both studies): after the second session
- CFB in CAPS-5 Total Severity Score, LS mean for treatment difference (95% CI) ([1]; MMRM, T2 (Visit 8)): −3.69 (−7.93, 0.54)
- CFB in CAPS-5 Total Severity Score, LS mean for treatment difference (95% CI) ([1]; MMRM, T3 (Visit 13)): −8.41 (−13.53, −3.29)
- CFB in CAPS-5 Total Severity Score, LS mean for treatment difference (95% CI) ([1]; MMRM, T4 (Visit 19)): −11.86 (−17.41, −6.32)
- CFB in CAPS-5 Total Severity Score, LS mean ([1]; de jure estimand, MMRM, CFB to T2 (Visit 8)): −10.40
- CFB in CAPS-5 Total Severity Score, LS mean ([1]; de jure estimand, MMRM, CFB to T3 (Visit 13)): −17.83
- CFB in CAPS-5 Total Severity Score, LS mean ([1]; de jure estimand, MMRM, CFB to T4 (Visit 19)): −24.50
- CAPS-5 Total Severity Score, Mean [1, 3]: 44.0
- CAPS-5 Total Severity Score, Median [1, 3]: 43.5
- CAPS-5 Total Severity Score, Mean [1, 4]: 33.7
- CAPS-5 Total Severity Score, Median [1, 4]: 34.5
- CAPS-5 Total Severity Score, Mean [1, 5]: 26.2
- CAPS-5 Total Severity Score, Median [1, 5]: 28.0
- CAPS-5 Total Severity Score, Mean [1, 6]: 19.5
- CAPS-5 Total Severity Score, Median [1, 6]: 18.5
- CFB in CAPS-5 Total Severity Score, Mean [1, 7]: −10.3
- CFB in CAPS-5 Total Severity Score, Median [1, 7]: −9.0
- CFB in CAPS-5 Total Severity Score, Mean [1, 8]: −17.7
- CFB in CAPS-5 Total Severity Score, Median [1, 8]: −17.5
- CFB in CAPS-5 Total Severity Score, Mean [1, 9]: −24.4
- CFB in CAPS-5 Total Severity Score, Median [1, 9]: −25.0
- Loss of Diagnosis, % ([1]; T2 endpoint (Visit 8)): (23.9) %
- Non-Responder (<10-point reduction in CAPS-5 Total Severity Score), % ([1]; T2 endpoint (Visit 8)): (54.3) %
- Remission, % ([1]; T2 endpoint (Visit 8)): (8.7) %
- Responder (≥10-point reduction in CAPS-5 Total Severity Score), % ([1]; T2 endpoint (Visit 8)): (45.7) %
- Loss of Diagnosis, % ([1]; T3 endpoint (Visit 13)): (57.1) %
- Non-Responder (<10-point reduction in CAPS-5 Total Severity Score), % ([1]; T3 endpoint (Visit 13)): (26.2) %
- Remission, % ([1]; T3 endpoint (Visit 13)): (11.9) %
- Responder (≥10-point reduction in CAPS-5 Total Severity Score), % ([1]; T3 endpoint (Visit 13)): (73.8) %
- Loss of Diagnosis, % [1, 10]: (66.7) %
- Non-Responder (<10-point reduction in CAPS-5 Total Severity Score), % [1, 10]: (11.9) %
- Remission, % [1, 10]: (33.3) %
- Responder (≥10-point reduction in CAPS-5 Total Severity Score), % [1, 10]: (88.1) %
- change from Baseline to Visit 19 in CAPS-5 total severity scores ([1]; MAPP1, MMRM, de jure estimand, mITT): −24.50
- no longer met PTSD diagnostic criteria ([1]; MAPP1, Visit 19): 66.7%
- remission (CAPS-5 ≤11 and no longer meeting PTSD diagnostic criteria) ([1]; MAPP1, Visit 19): 33.3%
- responders (≥10-point reduction in CAPS-5 total severity score) ([1]; MAPP1, Visit 19): 88.1%
